Source: US20230248741A1, “Compositions and Methods for Lowering Triglycerides in a Subject with Reduced Kidney Function and Diabetes Mellitus” (Amarin Pharmaceuticals Ireland Limited, priority 2018, published 2023)

System: patients with chronic kidney disease (eGFR <60 mL/min/1.73 m^2 for ≥3 months)
Experiment: ANCHOR post-hoc (CKD): renal parameters and TEAEs
Type: in vivo, human
Experimental: CVD-related (e.g., atherogenic) parameters were analyzed in a post-hoc study of 55 patients from the multi-center, placebo-controlled, randomized double-blind, 12-week study described in Example 1. These 55 patients have chronic kidney disease (e.g., eGFR<60 mL/min/1.73 m^2 for ≥3 months). There was no lower limit of eGFR specified. Analysis: The median difference in percent change from baseline between 4 g/day of E-EPA and placebo for the primary efficacy variable and additional assessments were estimated using the Hodges-Lehmann method (P values from the Wilcoxon rank-sum test for treatment comparisons). Using the Hodges-Lehmann method, departures from normal distribution were observed; for normally distributed parameters, an analysis of covariance model was used with least squares (LS) means and standard errors (SE). Missing values were imputed using the last-observation-carried-forward method. For all post hoc analyses, the alpha for statistical significance was 0.05.

[1] = 4 g/day group, before treatment

SMILES: CC/C=C\C/C=C\C/C=C\C/C=C\C/C=C\CCCC(=O)OCC [E-EPA, ethyl eicosapentaenoate]
- BUN at week 12, median (IQR) (4 g/day): 22.5 (11.0) mg/dL
- Nausea, nasopharyngitis, and arthralgia (4 g/day): not reported by any patients
- eGFR at week 12, median (IQR) (4 g/day): 56.0 (12.9) mL/min/1.73 m^2
- serum creatinine at week 12, median (IQR) (4 g/day): 1.2 (0.4) mg/dL
- serum creatinine, BUN, or eGFR from baseline to week 12 compared to placebo (4 g/day): did not produce significant changes
- BUN at baseline, median (IQR) [1]: 24.5 (12.0) mg/dL
- eGFR at baseline, median (IQR) [1]: 55.0 (13.8) mL/min/1.73 m^2
- serum creatinine at baseline, median (IQR) [1]: 1.2 (0.3) mg/dL
- patients with diarrhea (4 g/day, 2 patients): 10.5%
- patients with TEAE (4 g/day, 11 of 19 patients): 57.9%
- serum albumin (4 g/day, 12 weeks): no significant median changes from baseline
- eGFR, median difference in change from baseline compared with placebo (4 g/day, P=0.1983): −7.8%
- serum creatinine, median difference in change from baseline compared with placebo (4 g/day, P=0.1983): 6.5%
- BUN, median difference in change from baseline compared with placebo (4 g/day, P=0.5291): 5.5%
- BUN, median difference in change from baseline compared with placebo (4 g/day, P=0.5471): 1.0 mg/dL
